Data on 15 compounds can be found in ChEMBL document CHEMBL4043204, “meso-Dihydroguaiaretic acid derivatives with antibacterial and antimycobacterial activity” (Bioorg Med Chem, 2017).

Molecules are shown by their SMILES. ≈ marks a conversion by molar mass, not a printed value. Calls of active or inactive are those of the source. The calls are words filed in the database; no cut-off is given here.

In series [1] the test system is Mycobacterium tuberculosis. As to the kind of experiment: Antimycobacterial activity against Mycobacterium tuberculosis H37Rv ATCC 27294 assessed as inhibition of mycobacterial growth incubated for 2 weeks by MABA method. The conditions noted are these: for MIC: Mycobacterium tuberculosis, H37Rv ATCC 27294, 336 h. The format is functional.
The subject of series [2] is Stenotrophomonas maltophilia. As to the kind of experiment: Antibacterial activity against trimethoprim-sulfamethoxazole-resistant Stenotrophomonas maltophilia assessed as inhibition of microbial growth up to 50 ug/ml incubated for 24 hrs by microdilution assay. The format is functional.
Another series deals with Acinetobacter baumannii. As to the kind of experiment: Antibacterial activity against carbapenem-resistant Acinetobacter baumannii (12-666) assessed as inhibition of microbial growth up to 50 ug/ml incubated for 24 hrs by microdilution assay. The format is functional.
Series [3] relates to Escherichia coli. As to the kind of experiment: Antibacterial activity against oxacillin-resistant Escherichia coli OXA-48 assessed as inhibition of microbial growth up to 50 ug/ml incubated for 24 hrs by microdilution assay. The format is functional.
For series [4], the system named is Mycobacterium tuberculosis. As to the kind of experiment: Antimycobacterial activity against Mycobacterium tuberculosis H37Rv ATCC 27294 assessed as inhibition of mycobacterial growth up to 50 ug/ml incubated for 2 weeks by MABA method. The format is functional.
For the next series, the system named is Pseudomonas aeruginosa. As to the kind of experiment: Antibacterial activity against carbapenem-resistant Pseudomonas aeruginosa (13-1391) assessed as inhibition of microbial growth up to 50 ug/ml incubated for 48 hrs by microdilution assay. The format is functional.
In series [5] the test system is Klebsiella pneumoniae. As to the kind of experiment: Antibacterial activity against extended-spectrum beta-lactamase-positive Klebsiella pneumoniae (14-2081) assessed as inhibition of microbial growth up to 50 ug/ml incubated for 24 hrs by microdilution assay. The format is functional.
The subject of series [6] is Klebsiella pneumoniae. As to the kind of experiment: Antibacterial activity against NDM-1 positive Klebsiella pneumoniae (14-3335) assessed as inhibition of microbial growth up to 50 ug/ml incubated for 24 hrs by microdilution assay. The format is functional.
Series [7] has as its system Escherichia coli. As to the kind of experiment: Antibacterial activity against extended-spectrum beta-lactamase-positive Escherichia coli (14-2081) assessed as inhibition of microbial growth up to 50 ug/ml incubated for 24 hrs by microdilution assay. The format is functional.
Another series concerns Providencia rettgeri. As to the kind of experiment: Antibacterial activity against NDM-1 positive Providencia rettgeri assessed as inhibition of microbial growth up to 50 ug/ml incubated for 24 hrs by microdilution assay. The format is functional.
The nature of series [8]: Selectivity index, ratio of IC50 for cytotoxicity against African green monkey Vero cells to MIC for Mycobacterium tuberculosis H37Rv ATCC 27294. The format is toxicity, cell-based. To be noted: read-out: Selectivity Index.
In a further series the test system is Vero. As to the kind of experiment: Cytotoxicity against African green monkey Vero cells assessed as reduction in cell viability incubated for 24 hrs by trypan blue staining based assay. The conditions noted are these: Chlorocebus sabaeus.

As for `COc1ccc(C[C@@H](C)[C@@H](C)Cc2ccc(OC)c(OC)c2)cc1OC` [TERAMEPROCOL], the “-logMIC” value in series [1] is on record as 4.35. Also, the outcome (in [2]; with Acinetobacter baumannii; in the series with Escherichia coli [3]; in the series with Pseudomonas aeruginosa; with Klebsiella pneumoniae [5]; with Klebsiella pneumoniae [6]) was inactive. The result in the series on Escherichia coli [7] and in the series with Providencia rettgeri was inactive. Also, the “growth inhibition (GI)” value in [4] is “inactive”.
Turning to `COc1cc(C[C@@H](C)[C@@H](C)Cc2ccc(OC(=O)c3ccccn3)c(OC)c2)ccc1OC(=O)c1ccccn1`, the “-logMIC” value in series [1] is 3.92. Besides, the result (in [2]; in the series with Acinetobacter baumannii; in the series with Escherichia coli [3]; with Pseudomonas aeruginosa; in the series with Klebsiella pneumoniae [5]; in the series with Klebsiella pneumoniae [6]) was inactive. In addition, the outcome with Escherichia coli [7] and in the series on Providencia rettgeri was inactive. The “growth inhibition (GI)” value in series [4] is “inactive”.
In the case of `COc1cc(C[C@@H](C)[C@@H](C)Cc2ccc(OC(=O)c3ccc(Br)cc3)c(OC)c2)ccc1OC(=O)c1ccc(Br)cc1`, in [1], the “-logMIC” value came out at 4.09. Moreover, the outcome (in series [2]; in the series on Acinetobacter baumannii; in the series on Escherichia coli [3]; in the series with Pseudomonas aeruginosa; in the series on Klebsiella pneumoniae [5]; with Klebsiella pneumoniae [6]) was inactive. Moreover, the outcome in the series with Escherichia coli [7] and in the series on Providencia rettgeri was inactive. Besides, in [4], the “growth inhibition (GI)” value was “inactive”.
For `CCCC(=O)Oc1ccc(C[C@@H](C)[C@@H](C)Cc2ccc(OC(=O)CCC)c(OC)c2)cc1OC`, the “-logMIC” value in series [1] is given as 4.04. Further, the result (in series [2]; with Acinetobacter baumannii; in the series on Escherichia coli [3]; in the series on Pseudomonas aeruginosa; with Klebsiella pneumoniae [5]; in the series on Klebsiella pneumoniae [6]) was inactive. The result in the series with Escherichia coli [7] and with Providencia rettgeri was inactive. Also, in series [4], the “growth inhibition (GI)” value is “inactive”.
`COc1cc(C[C@@H](C)[C@@H](C)Cc2ccc(OCCN3CCOCC3)c(OC)c2)ccc1O` (racemic): the outcome (in [2]; in the series on Acinetobacter baumannii; in the series with Escherichia coli [3]; in the series on Pseudomonas aeruginosa; with Klebsiella pneumoniae [5]; in the series with Klebsiella pneumoniae [6]) was inactive. Moreover, the outcome in the series with Escherichia coli [7] and with Providencia rettgeri was inactive. Besides, the “growth inhibition (GI)” value in [4] was “inactive”.
In the case of `CCCC(=O)Oc1ccc(C[C@H](C)[C@H](C)Cc2ccc(O)c(OC)c2)cc1OC` (racemic), the “-logMIC” value in series [1] turned out to be 3.94. Moreover, the result (in [2]; in the series with Acinetobacter baumannii; with Escherichia coli [3]; with Pseudomonas aeruginosa; with Klebsiella pneumoniae [5]; in the series on Klebsiella pneumoniae [6]) was inactive. The outcome with Escherichia coli [7] and in the series with Providencia rettgeri was inactive. For the same compound, in [4], the “growth inhibition (GI)” value is “inactive”.
As to `CCCCCCCCCCCCCCCC(=O)Oc1ccc(C[C@@H](C)[C@@H](C)Cc2ccc(OC(=O)CCCCCCCCCCCCCCC)c(OC)c2)cc1OC`, in [1], the “-logMIC” value amounted to 4.02. Moreover, the result (in series [2]; with Acinetobacter baumannii; in the series with Escherichia coli [3]; in the series on Pseudomonas aeruginosa; in the series on Klebsiella pneumoniae [5]; in the series on Klebsiella pneumoniae [6]) was inactive. Moreover, the outcome in the series on Escherichia coli [7] and in the series with Providencia rettgeri was inactive. Moreover, the “growth inhibition (GI)” value in series [4] is “inactive”.
On to `COc1cc(C[C@@H](C)[C@@H](C)Cc2ccc(OC(=O)c3ccccc3)c(OC)c2)ccc1OC(=O)c1ccccc1`, for which, in series [1], the “-logMIC” value was determined as 4.14. Moreover, the result (in series [2]; in the series on Acinetobacter baumannii; with Escherichia coli [3]; in the series with Pseudomonas aeruginosa; in the series on Klebsiella pneumoniae [5]; in the series with Klebsiella pneumoniae [6]) was inactive. Further, the result in the series with Escherichia coli [7] and with Providencia rettgeri was inactive. The “growth inhibition (GI)” value in series [4] is “inactive”.
Turning to `CCCCCCCC/C=C\CCCCCCCC(=O)Oc1ccc(C[C@H](C)[C@H](C)Cc2ccc(O)c(OC)c2)cc1OC` (racemic), in series [1], the “-logMIC” value is listed as 4.51. Moreover, the outcome (in series [2]; in the series with Acinetobacter baumannii; with Escherichia coli [3]; with Pseudomonas aeruginosa; in the series with Klebsiella pneumoniae [5]; with Klebsiella pneumoniae [6]) was inactive. Besides, the result with Escherichia coli [7] and with Providencia rettgeri was inactive. For the same compound, the “growth inhibition (GI)” value in [4] was “inactive”.
Consider `COc1cc(C[C@@H](C)[C@@H](C)Cc2ccc(OC(=O)c3ccccc3[N+](=O)[O-])c(OC)c2)ccc1O` (racemic), for which the “-logMIC” value in series [1] is 3.94. Moreover, the MIC in series [1] was 12.5 µg/mL (≈ 26.1 µM). Besides, the outcome (in [2]; with Acinetobacter baumannii; with Escherichia coli [3]; in the series with Pseudomonas aeruginosa; in the series on Klebsiella pneumoniae [5]; in the series on Klebsiella pneumoniae [6]) was inactive. For the same compound, the outcome in the series on Escherichia coli [7] and with Providencia rettgeri was inactive. In addition, the selectivity ratio in series [8] worked out at 7.76. In addition, the IC50 in the series with Vero was 97.1 µg/mL (≈ 202 µM).
On to `COc1cc(C[C@@H](C)[C@@H](C)Cc2ccc(OC(=O)c3ccc(Br)cc3)c(OC)c2)ccc1O` (racemic), for which the “-logMIC” value in series [1] was determined as 4.58. For the same compound, the MIC in [1] is 12.5 µg/mL (≈ 24.3 µM). Also, the outcome (in series [2]; in the series on Acinetobacter baumannii; in the series on Escherichia coli [3]; in the series with Pseudomonas aeruginosa; with Klebsiella pneumoniae [5]; in the series with Klebsiella pneumoniae [6]) was inactive. Also, the result in the series on Escherichia coli [7] and with Providencia rettgeri was inactive. Also, the selectivity ratio in series [8] is 8.93. The IC50 in the series with Vero is 112 µg/mL (≈ 217 µM).
With `COc1cc(C[C@@H](C)[C@@H](C)Cc2ccc(OCCN(C)C)c(OC)c2)ccc1OCCN(C)C`, the “-logMIC” value in series [1] was determined as 4.32. In series [1], the MIC turned out to be 6.25 µg/mL (≈ 13.2 µM). Further, the outcome (in series [2]; with Acinetobacter baumannii; in the series with Escherichia coli [3]; with Pseudomonas aeruginosa; in the series on Klebsiella pneumoniae [5]; in the series with Klebsiella pneumoniae [6]) was inactive. The outcome in the series with Escherichia coli [7] and in the series on Providencia rettgeri was inactive. Also, the selectivity ratio in series [8] was above 77.9. The IC50 in the series on Vero is above 487 µg/mL.
For the compound `CCN(CC)CCOc1ccc(C[C@@H](C)[C@@H](C)Cc2ccc(OCCN(CC)CC)c(OC)c2)cc1OC`, the “-logMIC” value in series [1] came out at 4.55. The minimum inhibitory concentration (MIC) in [1] worked out at 25 µg/mL (≈ 47.3 µM). For the same compound, the result (in [2]; in the series with Acinetobacter baumannii; in the series on Escherichia coli [3]; in the series with Pseudomonas aeruginosa; in the series with Klebsiella pneumoniae [5]; in the series on Klebsiella pneumoniae [6]) was inactive. Further, the outcome in the series with Escherichia coli [7] and in the series with Providencia rettgeri was inactive. Further, in [8], the selectivity ratio was 1.45. Besides, the IC50 with Vero was 36.2 µg/mL (≈ 68.5 µM).
Regarding `COc1cc(C[C@@H](C)[C@@H](C)Cc2ccc(OCCN3CCCC3)c(OC)c2)ccc1O` (racemic), the “-logMIC” value in series [1] is reported as 5.25. Besides, the minimal inhibitory concentration (MIC) in [1] was 12.5 µg/mL (≈ 29.2 µM). Moreover, the outcome (in [2]; in the series on Acinetobacter baumannii; in the series on Escherichia coli [3]; with Pseudomonas aeruginosa; in the series with Klebsiella pneumoniae [5]; with Klebsiella pneumoniae [6]) was inactive. Moreover, the result in the series with Escherichia coli [7] and in the series with Providencia rettgeri was inactive. Further, the selectivity ratio in [8] is above 39. Also, the IC50 in the series with Vero is above 487 µg/mL.
For `COc1cc(C[C@@H](C)[C@@H](C)Cc2ccc(OCCN(C)C)c(OC)c2)ccc1O` (racemic), the “-logMIC” value in [1] worked out at 4.53. Moreover, the MIC in series [1] was determined as 12.5 µg/mL (≈ 31.1 µM). Besides, the outcome (in series [2]; in the series on Acinetobacter baumannii; in the series on Escherichia coli [3]; with Pseudomonas aeruginosa; in the series on Klebsiella pneumoniae [5]; with Klebsiella pneumoniae [6]) was inactive. Also, the result in the series on Escherichia coli [7] and in the series on Providencia rettgeri was inactive. Moreover, the selectivity ratio in series [8] was 26.1. The IC50 with Vero is 327 µg/mL (≈ 813 µM).
